“Also recorded” adds a separate entry of the source.
Key:
[1] = system: PTP/SHP-1 activity in KPC tumor; test: PTP/SHP-1 activity in KPC tumor in vivo; set-up: species or system murine; conditions: therapeutic treatment of KPC tumor
[2] = system: Human monocyte-derived macrophages; test: Human monocyte-derived macrophage response in tumor milieu configurations; type: cell-based; conditions: co-cultured with cancer cells (configuration 3)
Procedure: Mechanism by which tumor cells inhibit macrophage proinflammatory response in TME was studied. As shown in panel A of FIG. 19, macrophage responses were assayed in a tumor milieu: Human monocyte-derived macrophages (MØ) were cultured alone (configuration 1), cultured in the presence of cancer cells-conditioned medium (50%) that contained cancer cell secreted factors (secretome; configuration 2), or co-cultured with cancer cells (cell “touch” model; configuration 3), or co-cultured with cancer cells that were placed in a transwell (0.4 μm) without “touching” MØ(configuration 4). Macrophages in these settings were treated with proinflammatory stimuli TLR agonist R848 (l g/ml), R848 plus IFNγ (40 ng/ml), or the sting activator MSA-2 (10 μg/ml).

[3] = system: PTP activity in macrophages; test: PTP activity in macrophages co-cultured with cancer cells and stimulated with IFNγ/LPS or TLR agonists; type: cell-based; set-up: concentration or dose not given beside the values; conditions: induced by IFNγ/LPS or TLR agonists, with cancer cell ligation, 30 min, 37 °C
Procedure: (§1) FIGS. 3A-3E depict modulation of SHP-1 activity in proinflammatory macrophages in cancer. Macrophages co-cultured with cancer cells were stimulated with IFNγ/LPS or TLR agonists (αTLR) comprising CpG, polycytidylic acid (i.e., PolyI:C) and R848 (each 0.4 μg/ml) for 30 min (37 °C) in the presence or the absence of different SHP-1 or SHP-2 inhibitor or activator, followed by cell lysis and assays of PTP activity. FIG. 3A depicts SHP-1 activity regulation mechanisms. […] FIG. 3E depicts that PKCθ negatively regulates SHP-1 activity at a moderate level.

SHP-1 [4] = test: SHP-1 activity in macrophages under proinflammatory stimulation and cancer cell ligation; type: cell-based; conditions: IFNγ/LPS stimulation, cancer cell ligation
Procedure: FIGS. 2A-2G depict that the inhibition of SHP-1 enhances macrophage proinflammatory response, antigen presentation and phagocytosis in a tumor milieu. FIG. 2A and FIG. 2B depict that SHP-1 activity in macrophages is triggered by proinflammatory stimulation and the extracellular cancer cell ligation (“touching”) of macrophages (green bar in FIG. 2A). […] The SHP-2 inhibitor SHP099 (1 μg/ml) was used in assays. FIG. 2C depicts the inhibition of SHP-1 by TPI-1 dose-dependently recovers IFNγ/LPS-induced activation of STAT1 (p-STAT1) and Erk1/2 (p-Erk1/2) de-activated by SHP-1 (red line). FIG. 2D and FIG. 2E depict that the inhibition of SHP-1 in macrophages by TPI-1 enhances production of proinflammatory cytokines (FIG. 2D) and expression of immunogenic antigen presentation machinery (FIG. 2E) by IFNγ/LPS in a tumor milieu. […] The SHP-1 and SHP-2 inhibitors TPI-1 and SHP099, respectively, was used at 1 μg/ml in assays.
as §1
In addition to TPI-1, several other SHP-1 inhibitors such as PTP inhibitor-I, PTP inhibitor-III, and recently reported vitamin E (9, 10) and phomoxanthone A and B (P×A and P×B) (11) were tested. Given that PKCθ modulates SHP-1 activity through phosphorylating Ser591 (12, 13), PKCθ inhibitor and activator were also tested in various assays.

macrophages [5] = test: Macrophage cytokine production under immunosuppressive or proinflammatory stimulation with cancer cell ligation; type: cell-based
Text: FIGS. 6A-6D depict that the inhibition of SHP-1 promotes anti-tumor effects or pro-tumor effects under different circumstances. FIG. 6A depicts that intratumoral macrophages upregulate expression of iRs (Pir-B, Siglec E, F and G, and SIRPα) along with tumor progression to late-stage large sizes. KPC pancreatic tumors of small sizes (<150 mm^3) and those grown to larger sizes (>800 mm^3) were dissociated to single cells, followed by flow cytometry analyses for cell surface protein expression on macrophages (gated F4/80+). FIG. 6B depicts that the inhibition of SHP-1 alone promotes TME immunosuppression. Excised MC38 solid tumor cubes were treated with SHP-1 inhibitor TPI-1 (100 nM) or vehicle (DMSO) in a cell culture setting. After 24 h, tumor secreting cytokines into the culture medium were assayed by ELISA.
The SHP-1 activity in non-therapeutic solid tumors is low (see FIGS. 7A-7D), and this low activity inhibits immunosuppressive receptor signaling. […] In parallel experiments, the same SHP-1 inhibitors augmented macrophage responses to the M1 stimuli IFNγ and LPS and enhanced proinflammatory cytokine production.

[6] = system: TLR7/8 overexpressing pancreatic cancer cell line; conditions: stimulation of TLR7/8; cited from earlier work
[7] = system: malignant melanoma and advanced malignancies; conditions: cited from earlier work
macrophages [8] = test: Macrophage antigen presentation and proinflammatory response in presence of tumor cells with or without iShp1; type: cell-based; conditions: for pro-inflammatory activation of macrophages: combined with iShp1 (TPI-1), tumor milieu
Procedure: FIGS. 16A-16D depicts activation of macrophage proinflammatory response and antigen presentation in a tumor milieu by SHP-1 inhibition (iShp1) combination regimens. FIG. 16A depicts the testing system. FIG. 16B and FIG. 16C depict effects of interferons with or without TPI-1. FIG. 16D depicts effects of various agents including IL-1 family cytokines (IL-1, IL-18), TNFα and TLR ligands combined with TPI-1.
In vitro macrophages were assayed in the presence of tumor cells that ligate macrophage iRs with or without inhibition of SHP-1 (iShp1) by TPI-1. See the testing system in FIG. 16A.

SHP-1 [9] = test: SHP-1 binding to macrophage iRs with phosphorylated ITIMs; type: cell-based; conditions: macrophages stimulated
Text: Proinflammatory signal-induced Src family TK(s) mediate phosphorylation in the cytoplastic domain ITIMs that dock SHP-1 leading to SHP-1 activation.

SHP-2 = SHP-2 binding to macrophage iRs with phosphorylated ITIMs; type: cell-based; conditions: macrophages stimulated

Molecule: Nc1nc2c(ncn2[C@@H]2O[C@@H]3COP(=O)(O)O[C@H]4[C@@H](O)[C@H](n5cnc6c(N)ncnc65)O[C@@H]4COP(=O)(O)O[C@@H]2[C@@H]3O)c(=O)[nH]1 [2′3′-cGAMP]
- PTP/SHP-1 activity induced in tumor [1]: induced spikes of PTP activities

Molecule: Nc1ncn([C@@H]2O[C@H](CO)[C@@H](O)[C@H]2O)c(=O)n1 [Azacitidine (AZA), Azacitidine]
- PTP/SHP-1 activity induced in tumor [1]: spikes of SHP-1 activity are induced

Molecule: COc1cc2cc(C(=O)CCC(=O)O)sc2cc1OC [MSA-2]
- macrophage proinflammatory response in co-culture with cancer cells [2]: abolishment of proinflammatory response and enhanced immunosuppression with high IL-10 and TGFβ production

Molecule: O=C1C(=NNc2ccc(S(=O)(=O)O)cc2)C(c2ccc([N+](=O)[O-])cc2)=NN1c1ccccc1 [PHPS1]
- PTP activity diminished in macrophages [3]: < 10%

Molecule: CCCCCCCCCCCCCC(=O)O[C@@H]1[C@@H](C)[C@@]2(O)[C@@H](C=C(CO)C[C@]3(O)C(=O)C(C)=C[C@@H]23)[C@@H]2C(C)(C)[C@]12OC(C)=O [PMA]
- SHP-1 activity in macrophages (effect in words) (SHP-1 [4]): moderately inhibited SHP-1; also recorded: reduced SHP-1 activity

Molecule: O=C(CBr)c1ccc(O)cc1 [PTP-I]
- macrophage production of IL-12 and TNFα (macrophages [5]; IFNγ and LPS): dose-dependently augmented macrophage proinflammatory response with increased IL-12 and TNFα
- macrophage production of IL-10 and TGFβ (macrophages [5]; IL-4/13 or IL-10 stimulation): dose-dependently augmented
- PTP activity diminished in macrophages [3]: > 70%

Molecule: CCOCc1nc2c(N)nc3ccccc3c2n1CC(C)(C)O [R848]
- cell proliferation and chemosensitivity [6]: increased cell proliferation and reduced chemosensitivity
- macrophage proinflammatory response in co-culture with cancer cells [2]: abolishment of proinflammatory response and enhanced immunosuppression with high IL-10 and TGFβ production

Molecule: CC1(N)CCN(c2cnc(-c3cccc(Cl)c3Cl)c(N)n2)CC1 [SHP099]
- PTP activity diminished in macrophages [3]: < 10%

Molecule: O.O.O.O.O.O.O.O.O.O=C([O-])[C@@H]1[O][Sb]2([O-])([O][Sb]34([OH])[O][C@H]([C@H](O)CO)[C@H]([O]3)[C@H](C(=O)[O-])[O]4)[O][C@H]([C@H](O)CO)[C@@H]1[O]2.[Na+].[Na+].[Na+] [SSG, sodium stibogluconate]
- effect against tumor development ([7]; combination with interferons, with or without chemotherapy): no effect was seen against tumor development
- most common toxic side-effects, share of patients ([7]; thrombocytopenia, elevated serum lipase, fatigue, fever, chills, anemia, hypokalemia, pancreatitis, skin rash): up to 68 % of patients

Molecule: CC(C)[C@@](C)(O)[C@@H]1CN(c2nc(-c3[nH]nc4ncccc34)c(F)cc2Cl)CCN1 [VTX27]
- SHP-1 activity in macrophages (effect in words) (SHP-1 [4]): increased SHP-1 activity

Molecule: IFNα
- antigen presentation and proinflammatory response (macrophages [8]; alone, without and with iShp1 (TPI-1)): did not induce antigen presentation or proinflammatory response

Molecule: IL-1β: IL-1 family cytokine
- pro-inflammatory activation of macrophages (macrophages [8]): exhibited capacities of pro-inflammatory activation of macrophages

Molecule: IL-4: immunosuppressive cytokine
- binding of SHP-1 to iR ITIMs (SHP-1 [9]): leads to binding of SHP-1
- binding of SHP-2 to iR ITIMs (SHP-2): SHP-2 binding is dominated

Molecule: IL-6: activating cytokine
- binding of SHP-1 to iR ITIMs (SHP-1 [9]): SHP-1 binding occurs exclusively under proinflammatory conditions

Molecule: IL-10: immunosuppressive cytokine
- binding of SHP-1 to iR ITIMs (SHP-1 [9]): leads to binding of SHP-1
- binding of SHP-2 to iR ITIMs (SHP-2): SHP-2 binding is dominated

Molecule: IL-18: IL-1 family cytokine
- pro-inflammatory activation of macrophages (macrophages [8]): exhibited capacities of pro-inflammatory activation of macrophages

Molecule: Phomoxanthone A [Phomoxanthone A (PXA)]
- SHP-1 activity in macrophages (effect in words) (SHP-1 [4]): dose-dependently, moderately inhibited SHP-1 activity

Molecule: TGFβ: immunosuppressive cytokine
- binding of SHP-1 to iR ITIMs (SHP-1 [9]): leads to binding of SHP-1
- binding of SHP-2 to iR ITIMs (SHP-2): SHP-2 binding is dominated

Molecule: TNFα
- binding of SHP-1 to iR ITIMs (SHP-1 [9]): SHP-1 binding occurs exclusively under proinflammatory conditions
- pro-inflammatory activation of macrophages (macrophages [8]): exhibited capacities of pro-inflammatory activation of macrophages

Molecule: lipopolysaccharide [LPS]
- binding of SHP-1 to iR ITIMs (SHP-1 [9]): SHP-1 binding occurs exclusively under proinflammatory conditions

Molecule: pervanadate
- PTP activity diminished in macrophages [3]: > 70%

Molecule: polycytidylic acid [PolyIC]
- binding of SHP-1 to iR ITIMs (SHP-1 [9]): SHP-1 binding occurs exclusively under proinflammatory conditions

B1: IFNγ: type II interferon (protein, UniProt P01579 24-161, looked up)
Interferon gamma: QDPYVKEAENLKKYFNAGHSDVADNGTLFLGILKNWKEESDRKIMQSQIVSFYFKLFKNFKDDQSIQKSVETIKEDMNVKFFNSNKKKRDDFEKLTNYSVTDLNVQRKAIHELIQVMAELSPAAKTGKRKRSQMLFRG
- binding of SHP-1 to iR ITIMs (SHP-1 [9]): SHP-1 binding occurs exclusively under proinflammatory conditions
- antigen presentation (macrophages [8]; plus iShp1 (TPI-1)): significantly increased antigen presentation
- proinflammatory cytokine production (macrophages [8]; plus iShp1 (TPI-1)): did not elicit proinflammatory cytokine production

Source: patent US20260325465A1, “SHP-1 INHIBITORS FOR TREATING CANCER” (MDX MANAGEMENT LLC, priority 2022, published 2026)
